Assay results published in patent US12404241B2 (Celgene Corporation, priority 2018, dated 2025).
Read-outs that look alike come from different tables or passages of the source.

Biological target: T1, AR (Homo sapiens, UniProt P10275)
T1 construct: endogenous in cells; host or cells: VCaP cells
T1 sequence (P10275 1-920): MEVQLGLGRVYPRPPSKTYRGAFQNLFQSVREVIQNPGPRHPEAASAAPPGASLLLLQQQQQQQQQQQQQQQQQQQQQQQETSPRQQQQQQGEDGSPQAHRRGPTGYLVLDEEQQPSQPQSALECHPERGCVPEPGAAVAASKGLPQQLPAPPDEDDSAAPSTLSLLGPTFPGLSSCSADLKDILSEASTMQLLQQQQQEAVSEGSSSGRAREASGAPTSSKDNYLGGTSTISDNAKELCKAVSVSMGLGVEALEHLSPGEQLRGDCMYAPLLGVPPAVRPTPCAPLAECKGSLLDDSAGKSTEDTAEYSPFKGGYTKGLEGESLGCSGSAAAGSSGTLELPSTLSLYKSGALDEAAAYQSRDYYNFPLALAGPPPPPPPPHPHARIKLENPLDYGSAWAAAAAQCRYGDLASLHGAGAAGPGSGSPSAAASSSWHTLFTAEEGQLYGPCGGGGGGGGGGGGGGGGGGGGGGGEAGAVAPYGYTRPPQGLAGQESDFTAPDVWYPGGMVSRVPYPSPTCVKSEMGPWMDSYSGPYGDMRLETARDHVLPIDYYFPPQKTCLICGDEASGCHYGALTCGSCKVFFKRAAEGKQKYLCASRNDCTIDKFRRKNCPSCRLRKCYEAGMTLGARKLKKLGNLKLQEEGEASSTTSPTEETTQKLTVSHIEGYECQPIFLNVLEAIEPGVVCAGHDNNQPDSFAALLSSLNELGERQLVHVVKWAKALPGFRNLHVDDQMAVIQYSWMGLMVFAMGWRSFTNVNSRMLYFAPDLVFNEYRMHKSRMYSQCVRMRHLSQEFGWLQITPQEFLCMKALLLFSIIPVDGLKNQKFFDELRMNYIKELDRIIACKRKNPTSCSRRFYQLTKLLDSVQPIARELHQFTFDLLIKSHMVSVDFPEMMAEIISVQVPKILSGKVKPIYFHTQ
Test: VCAP AR Degradation Assay
Type: cell-based
Details: for Y (AR degradation efficiency, % of DMSO control): class symbols *; for DC50: class symbols A-C
Procedure, shortened: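 VCaP cells treated 24 h at 37 °C with a 10-point 1:3 series (top 5 μM final; 0.1% DMSO control). Lysate AR measured by sandwich ELISA, normalized to DMSO as percent of control; DC50, EC50 and lowest AR level (Y) from four-parameter logistic fit.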

Structure (SMILES) | Y (AR degradation efficiency, % of DMSO control) | DC50 (read-out: DC50) | DC50
C[C@@H]1CN(CCOc2ncc(N3C(=S)N(c4ccc(C#N)c(C(F)(F)F)c4)C(=O)C34CCC4)cc2C2CC2)C[C@H](C)N1CC(=O)Nc1cccc(NC2CCC(=O)NC2=O)c1 (stereo partly drawn) [Example 229, 2-((2S,6R)-4-(2-(5-(7-(4-cyano-3-(trifluoromethyl)phenyl)-8-oxo-6-thioxo-5,7-diazaspiro[3.4]octan-5-yl)-3-cyclopropylpyridin-2-yloxy)ethyl)-2,6-dimethylpiperazin-1-yl)-N-(3-(2,6-dioxopiperidin-3-ylamino)phenyl)acetamide] | * (0<Y<=25%) | < 100 nM | 
C[C@@H]1CN(CCOc2ccc(N3C(=S)N(c4cnc(C#N)c(C(F)(F)F)c4)C(=O)C3(C)C)cc2C(C)(F)F)CCN1CC(=O)Nc1cc(Cl)cc(NC2CCC(=O)NC2=O)c1 (stereo partly drawn) [Example 149, N-(3-chloro-5-(2,6-dioxopiperidin-3-ylamino)phenyl)-2-((R)-4-(2-(4-(3-(6-cyano-5-(trifluoromethyl)pyridin-3-yl)-5,5-dimethyl-4-oxo-2-thioxoimidazolidin-1-yl)-2-(1,1-difluoroethyl)phenoxy)ethyl)-2-methylpiperazin-1-yl)acetamide] | * (0<Y<=25%) | < 100 nM | 
CCc1cc(N2C(=S)N(c3cnc(C#N)c(C(F)(F)F)c3)C(=O)C2(C)C)ccc1OCCN1CCN(CC(=O)Nc2cc(Cl)cc(NC3CCC(=O)NC3=O)c2)[C@@H](C)C1 (stereo partly drawn) [Example 131, N-(3-chloro-5-(2,6-dioxopiperidin-3-ylamino)phenyl)-2-((S)-4-(2-(4-(3-(6-cyano-5-(trifluoromethyl)pyridin-3-yl)-5,5-dimethyl-4-oxo-2-thioxoimidazolidin-1-yl)-2-ethylphenoxy)ethyl)-2-methylpiperazin-1-yl)acetamide] | * (0<Y<=25%) | < 100 nM | 
C[C@@H]1CN(CCOc2ccc(N3C(=S)N(c4ccc(C#N)c(C(F)(F)F)c4)C(=O)C3(C)C)cc2F)CCN1CC(=O)Nc1cccc(NC2CCC(=O)NC2=O)c1 (stereo partly drawn) [Example 277, 2-((R)-4-(2-(4-(3-(4-cyano-3-(trifluoromethyl)phenyl)-5,5-dimethyl-4-oxo-2-thioxoimidazolidin-1-yl)-2-fluorophenoxy)ethyl)-2-methylpiperazin-1-yl)-N-(3-(2,6-dioxopiperidin-3-ylamino)phenyl)acetamide] | *** (35%<Y<50%) | < 100 nM | 
CCc1cc(N2C(=S)N(c3cnc(C#N)c(C(F)(F)F)c3)C(=O)C23CCC3)ccc1OCCN1CC2CCC(C1)N2CC(=O)Nc1cccc(NC2CCC(=O)NC2=O)c1 (stereo not drawn) [Example 171, 2-(3-(2-(4-(7-(6-cyano-5-(trifluoromethyl)pyridin-3-yl)-8-oxo-6-thioxo-5,7-diazaspiro[3.4]octan-5-yl)-2-ethylphenoxy)ethyl)-3,8-diazabicyclo[3.2.1]octan-8-yl)-N-(3-(2,6-dioxopiperidin-3-ylamino)phenyl)acetamide] | * (0<Y<=25%) |  | < 100 nM
CC(C)c1cc(N2C(=S)N(c3ccc(C#N)c(C(F)(F)F)c3)C(=O)C2(C)C)ccc1OCCN1C[C@@H](C)N(CC(=O)Nc2cccc(NC3CCC(=O)NC3=O)c2)C[C@H]1C (stereo partly drawn) [Example 193, 2-((2R,5R)-4-(2-(4-(3-(4-cyano-3-(trifluoromethyl)phenyl)-5,5-dimethyl-4-oxo-2-thioxoimidazolidin-1-yl)-2-isopropylphenoxy)ethyl)-2,5-dimethylpiperazin-1-yl)-N-(3-(2,6-dioxopiperidin-3-ylamino)phenyl)acetamide] | ** (25%<Y<=35%) | 100 to 500 nM | 
CCc1cc(N2C(=S)N(c3ccc(C#N)c(C(F)(F)F)c3)C(=O)C2(C)C)ccc1OCCN1C[C@@H](C)N(CC(=O)Nc2cc(Cl)cc(NC3CCC(=O)NC3=O)c2)C[C@H]1C (stereo partly drawn) [Example 128, N-(3-chloro-5-(2,6-dioxopiperidin-3-ylamino)phenyl)-2-((2R,5R)-4-(2-(4-(3-(4-cyano-3-(trifluoromethyl)phenyl)-5,5-dimethyl-4-oxo-2-thioxoimidazolidin-1-yl)-2-ethylphenoxy)ethyl)-2,5-dimethylpiperazin-1-yl)acetamide] | * (0<Y<=25%) | < 100 nM | 
CCc1cc(N2C(=S)N(c3cnc(C#N)c(C(F)(F)F)c3)C(=O)C2(C)C)ccc1OCCN1CCN([C@@H](C)C(=O)Nc2cc(Cl)cc(NC3CCC(=O)NC3=O)c2)CC1 (single isomer, unassigned) [Example 114] | * (0<Y<=25%) | < 100 nM | 
CCc1cc(N2C(=S)N(c3ccc(C#N)c(C(F)(F)F)c3)C(=O)C23CCC3)ccc1OCCN1CCN(CC(=O)Nc2cccc(NC3CCC(=O)NC3=O)c2)CC1 (stereo not drawn) [Example 132, 2-(4-(2-(4-(7-(4-cyano-3-(trifluoromethyl)phenyl)-8-oxo-6-thioxo-5,7-diazaspiro[3.4]octan-5-yl)-2-ethylphenoxy)ethyl)piperazin-1-yl)-N-(3-(2,6-dioxopiperidin-3-ylamino)phenyl)acetamide] | * (0<Y<=25%) | < 100 nM | 
CCc1cc(N2C(=S)N(c3cnc(C#N)c(C(F)(F)F)c3)C(=O)C2(C)C)ccc1OCCN1C[C@@H](C)N(CC(=O)Nc2cccc(NC3CCC(=O)NC3=O)c2)[C@@H](C)C1 (stereo partly drawn) [Example 151, 2-((2R,6S)-4-(2-(4-(3-(6-cyano-5-(trifluoromethyl)pyridin-3-yl)-5,5-dimethyl-4-oxo-2-thioxoimidazolidin-1-yl)-2-ethylphenoxy)ethyl)-2,6-dimethylpiperazin-1-yl)-N-(3-(2,6-dioxopiperidin-3-ylamino)phenyl)acetamide] | * (0<Y<=25%) | < 100 nM | 
CC1(C)C(=O)N(c2cnc(C#N)c(C(F)(F)F)c2)C(=S)N1c1ccc(OCCN2CCN(CC(=O)Nc3cc(NC4CCC(=O)NC4=O)ccc3F)CC2)cc1 (stereo not drawn) [Example 86, 2-(4-(2-(4-(3-(6-cyano-5-(trifluoromethyl)pyridin-3-yl)-5,5-dimethyl-4-oxo-2-thioxoimidazolidin-1-yl)phenoxy)ethyl)piperazin-1-yl)-N-(5-(2,6-dioxopiperidin-3-ylamino)-2-fluorophenyl)acetamide] | ** (25%<Y<=35%) | < 100 nM | 
CCc1cc(N2C(=S)N(c3cnc(C#N)c(C(F)(F)F)c3)C(=O)C2(C)C)ccc1OCCN1CCN([C@@H](C)C(=O)Nc2cc(F)cc(NC3CCC(=O)NC3=O)c2)CC1 (stereo partly drawn) [Example 116, (2S)-2-(4-(2-(4-(3-(6-cyano-5-(trifluoromethyl)pyridin-3-yl)-5,5-dimethyl-4-oxo-2-thioxoimidazolidin-1-yl)-2-ethylphenoxy)ethyl)piperazin-1-yl)-N-(3-(2,6-dioxopiperidin-3-ylamino)-5-fluorophenyl)propanamide] | * (0<Y<=25%) | < 100 nM | 
CCc1cc(N2C(=S)N(c3ccc(C#N)c(C(F)(F)F)c3)C(=O)C2(C)C)ccc1O[C@H](C)CN1C[C@@H](C)N(CC(=O)Nc2cccc(NC3CCC(=O)NC3=O)c2)[C@@H](C)C1 (single isomer, unassigned) [Example 241] | * (0<Y<=25%) | 100 to 500 nM | 
CC(C)c1cc(N2C(=S)N(c3ccc(C#N)c(C(F)(F)F)c3)C(=O)C2(C)C)cnc1OCCN1C[C@@H](C)N(CC(=O)Nc2cccc(NC3CCC(=O)NC3=O)c2)[C@@H](C)C1 (stereo partly drawn) [Example 224, 2-((2R,6S)-4-(2-(5-(3-(4-cyano-3-(trifluoromethyl)phenyl)-5,5-dimethyl-4-oxo-2-thioxoimidazolidin-1-yl)-3-isopropylpyridin-2-yloxy)ethyl)-2,6-dimethylpiperazin-1-yl)-N-(3-(2,6-dioxopiperidin-3-ylamino)phenyl)acetamide] | ** (25%<Y<=35%) | 100 to 500 nM | 
CCc1cc(N2C(=S)N(c3ccc(C#N)c(C(F)(F)F)c3)C(=O)C2(C)C)ccc1OCCN1C[C@H](C)N(CC(=O)Nc2cc(Cl)cc(NC3CCC(=O)NC3=O)c2)C[C@H]1C (stereo partly drawn) [Example 124, N-(3-chloro-5-(2,6-dioxopiperidin-3-ylamino)phenyl)-2-((2S,5R)-4-(2-(4-(3-(4-cyano-3-(trifluoromethyl)phenyl)-5,5-dimethyl-4-oxo-2-thioxoimidazolidin-1-yl)-2-ethylphenoxy)ethyl)-2,5-dimethylpiperazin-1-yl)acetamide] | * (0<Y<=25%) | 100 to 500 nM | 
